# Test results taken from US20160175412A1, “PREVENTION OF TYPE 1 DIABETES BY TREG VACCINATION WITH AN INSULIN MIMETOPE” (DANA-FARBER CANCER INSTITUTE, INC., priority 2010, published 2016).
# Where no end group is shown, it is not given here.
# How the values were obtained:
# IAu = target: T1, IAu (Mus musculus, UniProt P06344+P14438); details: presented by IAu; cited from earlier work
# T1 sequence (P14438 1-227): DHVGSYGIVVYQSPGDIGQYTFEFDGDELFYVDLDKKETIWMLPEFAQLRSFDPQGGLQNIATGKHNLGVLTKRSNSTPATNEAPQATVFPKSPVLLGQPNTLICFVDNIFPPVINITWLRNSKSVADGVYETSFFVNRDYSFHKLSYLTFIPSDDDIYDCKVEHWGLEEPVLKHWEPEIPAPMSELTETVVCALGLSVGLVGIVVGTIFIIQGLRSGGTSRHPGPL
# T1 sequence (P06344 28-263): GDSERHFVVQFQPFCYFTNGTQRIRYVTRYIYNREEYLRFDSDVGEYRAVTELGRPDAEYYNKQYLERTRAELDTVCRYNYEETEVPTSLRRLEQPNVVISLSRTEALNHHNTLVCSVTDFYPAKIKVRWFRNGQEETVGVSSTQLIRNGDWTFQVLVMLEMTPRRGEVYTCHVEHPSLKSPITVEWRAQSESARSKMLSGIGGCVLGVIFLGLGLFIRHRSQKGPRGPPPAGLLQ
# [1] = test system: HA(107-119) TCR transgenic Foxp3GFP-reporter T cells; experiment: in vivo HA-specific Treg conversion, congenic adoptive-transfer system; parameters: species or system mouse; details: injection of mTOR-inhibitor
# Method: (b) In vivo conversion of naïve CD4+CD25-T cells expressing a transgenic TCR of interest into Treg cells using a congenic transfer system. HA(107-119)TCR transgenic CD4+/Foxp3-/GFP Thy1.1+ cells are transferred iv into a host such as a Balb/c thy1.2+ mouse. A to single dose of a covalent conjugate of […] fusion antibody is administered ip. Analysis of Foxp3 expression in CD4-enriched Thy1.1+ spleenocytes and lymph nodes is conducted after 14 days flow cytometrically.
# For the exploitation of antigen-specific Treg induction to interfere with unwanted immunity as diabetes the inventors performed optimization studies in order to achieve stable de novo differentiation of naive T cells into Tregs in sufficient numbers. Therefore we aimed at using combinations of compounds that enhance conversion, selectively expand the generated Tregs and allow for maintenance of the Treg phenotype. […] To induce rapid expansion of these Tregs the inventors injected the mice with IL-2 mixed with an optimized amount of a particular IL-2 monoclonal antibody (IL-2/IL-2 ab complexes) for a short period of 3 days at the end of the conversion period. […] Moreover, these Tregs were stable and persisted over a period of 4 months, which is an important feature as it allows for prospective induction to suppress unwanted immune responses.
# BDC2.5 T cells = details: cited from earlier work
# IAg^7 [2] = details: cited from earlier work
# IAg^7 [3] = experiment: peptide binding to MHC class II IAg7; parameters: species or system mouse; details: MHC class II IAg^7
# Source text: The natural Insulin B:9-23 peptide is known to be associated with Type I diabetes. This peptide binds with poor affinity to IAg^7 in multiple binding registers.
# Chromogranin A was recently identified as the antigenic source of the highly pathogenic BDC2.5 T cell clone associated with Type I diabetes. WE14 is naturally processed from Chromogranin A by a furin-like protease. […] Studies have shown that this epitope only partially fills the peptide binding groove.
# (§1) The inventors performed similar protocols of antigen-specific Treg conversion studies to prevent the development of spontaneous diabetes in NOD mice by injecting DEC205 fusion antibodies that contain the beta chain of insulin. […] The inventors hypothesized that weak epitopes may fail to induce efficient Treg conversion, and we initiated studies using Insulin B:9-23 TCR transgenic mice and identified in T cell proliferation assays insulin mimetopes that stimulate better than the Insulin B:9-23 peptide itself because of an increased binding capacity to MHC class II IAg^7, compared to the aforementioned Insulin B:9-23 peptide. In fact such mimetopes achieved better conversion of naive T cells expressing the transgenic TCR. […]
# NOD InsB:9-23 Tg T cells = experiment: thymidine incorporation T cell proliferation assay; format: cell-based, mouse; details: Insulin B:9-23 TCR transgenic T cells
# Source text: A key feature of the adaptive immune response is the ability of antigen-specific T cells to rapidly proliferate following antigenic-stimulation. Assays to assess the proliferative activity of antigen-specific T cells are a core tool to allow for evaluation of TCR- and MHC-binding properties based on the growth rate of the T cell populations after stimulation with a defined amount of antigen. A historically established assay is the detection of tritiated thymidine ^3H uptake. Therefore CD4+ T-cells from Rag def. NOD mice expressing a transgenic TCR for the a peptide of interest (e.g., Insulin B 9:23 peptide) are isolated by the use of a magnetic bead separation approach. Purified CD11^+DCs from normal NOD mice are used as antigen-presenting cells and irradiated. To induce proliferation of antigen-specific CD4^+ T cells, co-cultures are set up with naïve Insulin-specific CD4^+ T cells in 200 μl RPMI1640 medium supplemented with 10% (vol/vol) FCS in 96-well round-bottomed plates. Soluble peptides (e.g., natural InsulinB9:23 peptide) or mimetopes (e.g., Insulin mimetopes) are added to the cultures in various concentration (10 μg/ml to 0.01 μg/ml). Analysis of proliferation of antigen-specific T cells is performed by incorporation of ^3H-thymidine added for the last 12 hours of a 70 hours culture period followed by scintillation counting. […]
# [4] = test system: T cells with a specific transgenic TCR for the K^d54-68 peptide; details: cited from earlier work
# NOD mice = experiment: prevention of spontaneous diabetes in NOD mice; format: in vivo, mouse; details: injection into young NOD mice
# Source text: The inventors have been successful in inducing HY-specific Treg from naIve T cells in wt female B6 mice that were infused with HY-peptide and visualized with HY-peptide, class II tetramers (1). However, a similar approach to prevent diabetes in NOD mice by injecting insulin B:9-23 peptide into young NOD mice failed.
# as §1, with “TCR. The inventors then studied the impact of these insulin-derived mimetopes in young NOD mice on diabetes development via subimmunogenic peptide delivery using either newly designed DEC205 peptide fusion antibodies (see description below) or peptide-infusing mini-osmotic pumps.” for “TCR.”
compound,measurement,setting,value
"Act-11 MBP: SEQ ID NO: 8, Ac-ASQKRPSQRHG; acetylated N-terminal myelin basic protein epitope",epitope strength,IAu,weak epitope
CO[C@H]1C[C@@H]2CC[C@@H](C)[C@@](O)(O2)C(=O)C(=O)N2CCCC[C@H]2C(=O)O[C@H]([C@H](C)C[C@@H]2CC[C@@H](OCCO)[C@H](OC)C2)CC(=O)[C@H](C)/C=C(\C)[C@@H](O)[C@@H](OC)C(=O)[C@H](C)C[C@H](C)/C=C/C=C/C=C/1C [Everolimus],frequency of newly generated HA-specific Foxp3+ Tregs,[1],substantially increases
"WE14: SEQ ID NO: 4, WSRMDQLAKELTAE; naturally processed from Chromogranin A (WE14 peptide)",stimulation of BDC2.5 T cells,BDC2.5 T cells,poor stimulation
same,binding to IAg^7 (MHC-binding),IAg^7 [2],weakly
"InsMim3 peptide mimetope: SEQ ID NO: 2, VEALYLVCGEEG; insulin mimetope, p9 Arginine exchanged to Glutamic acid (InsMim3 peptide mimetope)",MHC binding compared with natural Insulin B:9-23 peptide,IAg^7 [3],enhanced MHC binding
same,stimulation of T cells compared with natural Insulin B:9-23 peptide,NOD InsB:9-23 Tg T cells,better stimulation of T cells
"pS3 peptide: SEQ ID NO: 5, RLGLWVRME; strong stimulating mimetope of WE14 (pS3 peptide mimetope)",stimulation of BDC2.5 T cells,BDC2.5 T cells,strong stimulating mimetope
same,binding to IAg^7 (MHC-binding),IAg^7 [2],improved MHC-binding
"K^d54-68 peptide: SEQ ID NO: 6, QEGPEYWEEQTQRAK; MHC class I derived processed peptide presented by IAb (Kd 54-68 peptide)",agonist strength,[4]; MHC-derived transplantation antigen,weak agonist
same,proliferation of specific TCR transgenic T cells,[4]; dendritic cells pulsed with peptide,not able to stimulate the proliferation
"natural Insulin B:9-23 peptide: SEQ ID NO: 1, SHLVEALYLVCGERG; natural peptide associated with Type I diabetes (Insulin B peptide)",binding to IAg^7 (MHC-binding),IAg^7 [2],poor affinity
same,prevention of diabetes,NOD mice,failed
